Article PMC8274818 (Bioorganic & medicinal chemistry, 2019)
≈ marks a conversion by molar mass, not a printed value.

Assay: Kinetic solubility assay
Assay type: physicochemical
Conditions: phosphate buffer, pH 7.4, aqueous buffer, kinetic from dmso stock

solubility kinetic at 6 h	SMILES
< 1 µg/mL	CCCSc1ccc2nc(NC(=O)OC)[nH]c2c1 [Albendazole, albendazole]
27.7 ± 4.49 µg/mL (≈ 130 µM)	Nc1ccc(/N=N/c2ccccc2)c(N)n1 [phenazolpyridine]
